US7585895B2, “Therapeutic substituted cyclopentanes” (Allergan, Inc., priority 2005, dated 2009)

What was measured:
Type in all cases: in vivo
Dog ocular hyperemia = details: Conc. 0.1 g/100 mL
[1] = Monkey intraocular pressure (Max. ΔIOP); details: Primates, Conc. 0.1 g/100 mL
Rabbit ocular hyperemia = details: Conc. 0.1 g/100 mL
[2] = Dog intraocular pressure (Max. ΔIOP); details: Canis lupus familiaris, Conc. 0.1 g/100 mL

**Q.** With `CCCCCCc1ccc([C@@H]2[C@@H](C/C=C\CCCC(=O)O)[C@H](Cl)C[C@H]2O)cc1` [compound 6] as the compound, how does the “DOG Max. hpyeremia” value (Dog ocular hyperemia) read?
**A.** 0.6

**Q.** And the change in vivo at 1000 µg/mL [1]?
**A.** 32%

**Q.** What about the “RABBIT Max. hyperemia” value (Rabbit ocular hyperemia) of the same compound?
**A.** 0.25

**Q.** What about the change in vivo at 1000 µg/mL [2] of the same compound?
**A.** -43%
